We go through 24 compounds from US12157727B2, “Substituted tetrahydroquinolin compounds as indoleamine 2,3-dioxygenase (IDO) inhibitors” (Merck Sharp & Dohme LLC, priority 2019, dated 2024).

For the experiment, the target named is T1, IDO1 (Homo sapiens, UniProt P14902).
T1 construct: Human whole blood was drawn in sodium heparin coated tubes from healthy internal donors; from tissue; host or cells: human whole blood from healthy donors, stimulated with LPS and IFNγ
T1 sequence (P14902 whole entry): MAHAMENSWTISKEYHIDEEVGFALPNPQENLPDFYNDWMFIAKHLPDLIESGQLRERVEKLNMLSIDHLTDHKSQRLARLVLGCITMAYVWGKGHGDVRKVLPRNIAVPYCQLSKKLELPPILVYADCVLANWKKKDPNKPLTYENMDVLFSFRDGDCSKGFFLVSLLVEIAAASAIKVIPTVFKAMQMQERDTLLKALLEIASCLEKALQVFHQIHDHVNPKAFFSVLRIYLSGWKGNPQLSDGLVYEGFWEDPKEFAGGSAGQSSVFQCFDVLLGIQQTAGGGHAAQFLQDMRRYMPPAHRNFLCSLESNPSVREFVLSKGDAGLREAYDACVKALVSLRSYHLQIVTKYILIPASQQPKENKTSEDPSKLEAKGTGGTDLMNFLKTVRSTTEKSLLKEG
In words: IDO1 Human Whole Blood Assay. In kind it is cell-based. As to conditions: LPS and IFNγ 100 ng/mL, overnight (18 h), kynurenine by LC/MS/MS. The method, then:
Compounds to be tested were serially diluted in ten 3-fold steps in DMSO starting from 10 mM. 3 μL of compound dilutions or DMSO alone were then dispensed from the dilution plate into a polypropylene 96-well assay plate containing 97 μL of RPMI using an Echo 555 acoustic liquid handler (Labcyte). LPS and IFNγ was prepared in RPMI to a 10× of final conc. (1000 ng/mL), final concentration is 100 ng/mL.
Human whole blood was drawn in sodium heparin coated tubes from healthy internal donors. 240 μL of blood was transferred to each of the wells of a v-bottom 96 well plate. 30 μL of compound was transferred from intermediate dilution plate, and incubated for 15 min. 30 μL from stimulants was then transferred to blood and mixed thoroughly. Plate was covered with breathable membrane and incubated at 37° C. for overnight (18 h).
On day 2 isotope labeled standard of kynurenine and tryptophan was made in water at 10×concentration and 30 μL was added to the blood at 3 μM final concentration. The assay plates were centrifuged at 300×G for 10 min with no brake to separate plasma from red blood cells. 60 μL of plasma samples was removed without disturbing red blood cells. Plasma was diluted with RPMI in 1:1 ratio and proteins were precipitated out with two volumes of Acetonitrile. The plates were centrifuged at 4000×G for 60 min. 20 μL of supernatant was carefully transferred to a 384 well plate contain 40 μL of 0.1% formic acid in water and analyzed by LC/MS/MS.
LC/MS/MS analyses were performed using Thermo Fisher's LX4-TSQ Quantum Ultra system. This system consists of four Agilent binary high-performance liquid chromatography (HPLC) pumps and a TSQ Quantum Ultra triple quadrupole MS/MS instrument. For each sample, 5 μL were injected onto an Atlantis T3 column (2.1 mm×150 mm, 3 μm particle size) from Waters. The mobile phase gradient pumped at 0.8 mL/min was used to elute the analytes from the column at 25° C. The elution started at 0% B increasing linearly to 25% B at 6.5 min, holding at 25% for 1 min, re-equilibrating to 10 min. Mobile phase A consisted of 0.1% formic acid in water. Mobile phase B consisted of 0.1% of formic acid in acetonitrile. Data was acquired in positive mode using a HESI interface. The operational parameters for the TSQ Quantum Ultra instrument were a spray voltage of 4000 V, capillary temperature of 380° C., vaporizer temperature 400° C., shealth gas 60 arbitrary units, Aux gas 20 arbitrary units, tube lens 85 and collision gas 1.2 mTorr. SRM chromatograms of kynurenine (Q1: 209.2>Q3:94.0) and internal standard (Q1: 215.3>Q3:98.2) were collected for 90 sec. The peak area was integrated by Xcalibur Quan software. The ratios between the kynurenine generated in the reaction and 2D6-Kynurenine spiked-in internal standard were used to generate percentage inhibition and IC50 values. Compounds were titrated and IC50' s were calculated by 4 parameter sigmoidal curve fitting formula.
Regarding `O=C(C1CC1)N1CCCc2cc(C3(c4nc5ncc(C(F)(F)F)cc5[nH]4)CCC3)ccc21` [Example 1, Cyclopropyl(6-(1-(6-(trifluoromethyl)-1H-imidazo[4,5-b]pyridin-2-yl)cyclobutyl)-3A-dihydroquinolin-1(2H)-yl)methanone], the concentration for half-maximal inhibition (IC50) turned out to be 186 nM.

`O=C(C1CC1)N1CCCc2cc(C3(c4nc5ccc(Cl)cc5[nH]4)CCC3)ccc21` [Example 2, {6-[1-(6-chloro-1H-benzimidazol-2-yl)cyclobutyl]-3,4-dihydroquinolin-1(2H)-yl}(cyclopropyl) methanone]: the midpoint of inhibition, the IC50, lay at 132 nM.

`O=C([C@H]1CCCO1)N1CCCc2cc(C3(c4nc5ncc(C(F)(F)F)cc5[nH]4)CCC3)ccc21` [Example 3, [(2R)-oxolan-2-yl][6-{1-[6-(trifluoromethyl)-1H-imidazo[4,5-b]pyridin-2-yl]cyclobutyl}-3,4-dihydroquinolin-1(2H)-yl]methanone] displayed an IC50 of 30.7 nM. This IC50 lies about 4.3-fold lower than the previous one.

As to `N#Cc1ccc2nc(C3(c4ccc5c(c4)CCCN5C(=O)C4CC4)CCC3)[nH]c2c1` [Example 4, 2-{1-[1-(cyclopropane-carbonyl)-1,2,3,4-tetrahydroquinolin-6-yl]cyclobutyl}-1H-benzimidazole-6-carbonitrile], inhibition was half-maximal at 27 nM (IC50).

On to `COC(=O)N1CCCc2cc(C3(c4nc5ncc(C(F)(F)F)cc5[nH]4)CCC3)ccc21` [Example 5, Methyl 6-(1-(6-(trifluoromethyl)-1H-imidazo[4,5-b]pyridin-2-yl)cyclobutyl)-3,4-dihydroquinoline-1(2H)-carboxylate], for which the IC50 was determined as 229 nM.

`O=C(C1CC1)N1CCCc2nc(C3(c4nc5cc(C(F)(F)F)cnc5[nH]4)CCC3)ccc21` [Example 13, Cyclopropyl(6-(1-(6-(trifluoromethyl)-3H-imidazo[4,5-b]pyridin-2-yl)cyclobutyl)-3,4-dihydro-1,5-naphthyridin-1(2H),-yl)methanone]: the IC50 amounted to 56.3 nM.

As for `O=C([C@@H]1CCCCO1)N1CCCc2nc(C3(c4nc5ncc(C(F)(F)F)cc5[nH]4)CCC3)ccc21` [Example 15, (S)-(tetrahydro-2H-pyran-2-yl)(6-(1-(6-(trifluoromethyl)-1H-imidazo[4,5-b]pyridin-2-yl)cyclobutyl)-3,4-dihydro-1,5-naphthyridin-1(2H)-yl)methanone], the IC50 turned out to be 26.1 nM.

`O=C([C@H]1CCCCO1)N1CCCc2nc(C3(c4nc5ncc(C(F)(F)F)cc5[nH]4)CCC3)ccc21` [Example 16, (R)-(tetrahydro-2H-pyran-2-yl)(6-(1-(6-(trifluoromethyl)-1H-imidazo[4,5-b]pyridin-2-yl)cyclobutyl)-3,4-dihydro-1,5-naphthyridin-1(2H)-yl)methanone]: the IC50 is 14.1 nM.

`O=C(c1ccccc1Cl)N1CCCc2nc(C3(c4nc5ncc(C(F)(F)F)cc5[nH]4)CCC3)ccc21` [Example 17, (2-chlorophenyl)[6-{1-[6-(trifluoromethyl)-1H-imidazo[4,5-b]pyridin-2-yl]cyclobutyl}-3,4-dihydro-1,5-naphthyridin-1(2H)-yl]methanone] yielded an IC50 of 47.8 nM.

`COC(=O)N1CCCc2nc(C3(c4nc5cc(C(F)(F)F)cnc5[nH]4)CCC3)ccc21` [Example 18, methyl 6-(1-(6-(trifluoromethyl)-3H-imidazo[4,5-b]pyridin-2-yl)cyclobutyl)-3,4-dihydro-1,5-naphthyridine-1(2H),-carboxylate] displayed an IC50 of 494 nM.

In the case of `CCOC(=O)N1CCCc2nc(C3(c4nc5cc(C(F)(F)F)cnc5[nH]4)CCC3)ccc21` [Example 19, ethyl 6-{1-[6-(trifluoromethyl)-3H-imidazo[4,5-b]pyridin-2-yl]cyclobutyl}-3,4-dihydro-1,5-naphthyridine-1(2H)-carboxylate], the IC50 amounted to 274 nM.

`N#Cc1ccc2nc(C3(c4ccc5c(n4)CCCN5C(=O)OC4CC4)CCC3)[nH]c2c1` [Example 20, cyclopropyl 6-[1-(6-cyano-1H-benzimidazol-2-yl)cyclobutyl]-3,4-dihydro-1,5-naphthyridine-1(2H)-carboxylate]: the IC50 was found to be 35 nM.

Consider `O=C(OC1CC1)N1CCCc2nc(C3(c4nc5ccc(Cl)cc5[nH]4)CCC3)ccc21` [Example 21, cyclopropyl 6-[1-(6-chloro-1H-benzimidazol-2-yl)cyclobutyl]-3,4-dihydro-1,5-naphthyridine-1(2H)-carboxylate], for which the IC50 was found to be 44.1 nM.

As to `O=C(OC1CC1)N1CCCc2nc(C3(c4nc5ncc(Cl)cc5[nH]4)CCC3)ccc21` [Example 22, cyclopropyl 6-[1-(6-chloro-1H-imidazo[4,5-b]pyridin-2-yl)cyclobutyl]-3,4-dihydro-1,5-naphthyridine-1(2H)-carboxylate], the IC50 was found to be 60.5 nM.

As to `O=C(OC1CC1)N1CCCc2nc(C3(c4nc5ncc(C(F)(F)F)cc5[nH]4)CCC3)ccc21` [Example 23, cyclopropyl 6-{1-[6-(trifluoromethyl)-1H-imidazo[4,5-b]pyridin-2-yl]cyclobutyl}-3,4-dihydro-1,5-naphthyridine-1(2H)-carboxylate], the IC50 amounted to 64.2 nM. The IC50 values of the last two compounds are within 1.5-fold of each other.

The compound `N#Cc1cnc2nc(C3(c4ccc5c(n4)CCCN5C(=O)OC4CC4)CCC3)[nH]c2c1` [Example 24, cyclopropyl 6-[1-(6-cyano-1H-imidazo[4,5-b]pyridin-2-yl)cyclobutyl]-3,4-dihydro-1,5-naphthyridine-1(2H)-carboxylate] came in with an IC50 of 121 nM.

As for `CC(c1ccc2c(n1)CCCN2C(=O)OC1CC1)c1nc2ccc(Cl)cc2[nH]1` (stereo not drawn) [Example 25, cyclopropyl 6-(1-(6-chloro-1H-benzo[d]imidazol-2-yl)ethyl)-3,4-dihydro-1,5-naphthyridine-1(2H)-carboxylate], the IC50 came to 117 nM. This IC50 and that of the compound before are within 1.5-fold of each other.

In turn, `C[C@@H](c1ccc2c(n1)CCCN2C(=O)OC1CC1)c1nc2ccc(Cl)cc2[nH]1` [Example 26, cyclopropyl (S)-6-(1-(6-chloro-1H-benzo[d]imidazol-2-yl)ethyl)-3,4-dihydro-1,5-naphthyridine-1(2H)-carboxylate] returned an IC50 of 55 nM. This IC50 lies about 2.1-fold lower than the previous one.

`C[C@H](c1ccc2c(n1)CCCN2C(=O)OC1CC1)c1nc2ccc(Cl)cc2[nH]1` [Example 27, cyclopropyl (R)-6-(1-(6-chloro-1H-benzo[d]imidazol-2-yl)ethyl)-3,4-dihydro-1,5-naphthyridine-1(2H)-carboxylate]: the concentration for half-maximal inhibition (IC50) came to 56.8 nM.

`Cc1nccc(N2CCCc3nc(C4(c5nc6cc(C(F)(F)F)cnc6[nH]5)CCC4)ccc32)n1` [Example 30, 1-(2-methylpyrimidin-4-yl)-6-(1-(6-(trifluoromethyl)-3H-imidazo[4,5-b]pyridin-2-vyl)cyclobutyl)-1,2,3,4-tetrahydro-1,5-naphthyridine] gave a half-maximal inhibitory concentration (IC50) of 355 nM.

In turn, `FC(F)(F)c1nccc(N2CCCc3nc(C4(c5nc6cc(Cl)ccc6[nH]5)CCC4)ccc32)n1` [Example 33, 6-[1-(5-chloro-1H-benzimidazol-2-yl)cyclobutyl]-1-[2-(trifluoromethyl)pyrimidin-4-yl]-1,2,3,4-tetrahydro-1,5-naphthyridine] displayed an IC50 of 83.3 nM.

In turn, `Cc1nccc(N2CCCc3nc(C4(c5nc6cc(Cl)ccc6[nH]5)CCC4)ccc32)n1` [Example 34, 6-[1-(6-chloro-1H-benzimidazol-2-yl)cyclobutyl]-1-(2-methylpyrimidin-4-yl)-1,2,3,4-tetrahydro-1,5-naphthyridine] returned an IC50 of 140 nM. Against the preceding compound, the IC50 is about 1.7-fold higher.

For `FC(F)(F)c1nccc(N2CCCc3nc(C4(c5nc6cc(Cl)cnc6[nH]5)CCC4)ccc32)n1` [Example 35, 6-[1-(6-chloro-3H-imidazo[4,5-b]pyridin-2-yl)cyclobutyl]-1-[2-(trifluoromethyl)pyrimidin-4-yl]-1,2,3,4-tetrahydro-1,5-naphthyridine], the IC50 worked out at 53.9 nM.

In turn, `N#Cc1ccc2nc(C3(c4ccc5c(n4)CCCN5c4ccnc(C(F)(F)F)n4)CC4(CC4)C3)[nH]c2c1` [Example 41, 2-(5-(5-(2-(trifluoromethyl)pyrimidin-4-yl)-5,6,7,8-tetrahydro-1,5-naphthyridin-2-yl)spiro[2,3]hexan-5-yl)-1H-benzo[d]imidazole-6-carbonitrile] registered an IC50 of 71.3 nM.

Broadly, the IC50 is the midpoint of a concentration-inhibition curve.
